Here are results for four compounds from article PMC4775916 (Antimicrobial Agents and Chemotherapy, 2016).

Where “and” joins values, the source holds several entries; their conditions need not be identical. Equal values may be shown once. Read-outs that look alike come from different tables or passages of the source.

Experiment [1] addresses T1, VIM-1 (Pseudomonas aeruginosa, UniProt A0A0F7KYQ8).
T1 construct: The N- and C- terminal residues of the mature enzymes are labelled 26; made in house
Description: Steady-state kinetics of β-lactam substrate hydrolysis. The experiment is classed as biochemical. The procedure:
(§1) The hydrolysis of a representative panel of β-lactam substrates was monitored at their respective absorbance wavelengths. The wavelengths and extinction coefficients used were previously described ([34]). The assays were carried out using 50 mM HEPES buffer (pH 7.2) supplemented with 1 μg/ml bovine serum albumin (BSA), 1 μM ZnSO4, and 0.01% Triton X-100. In the case of VIM-1, C-terminally His6-tagged VIM-1 was used for kinetic analyses. Note that no differences were observed between the activities of untagged VIM-1 and C-terminally His6-tagged VIM-1 for the selected antibiotics (data not shown). The initial rates were obtained from the changes in absorbance at various substrate concentrations. Steady-state kinetic parameters (Km and kcat) were determined by fitting the initial velocity data to the Michaelis-Menten equation using GraphPad Prism 5.01 software (see Table S4 in the supplemental material).

A further experiment deals with T2, VIM-38 (Pseudomonas aeruginosa, UniProt A0A0F7KYQ8, A128K/A265V/E202A/H201L/K257T/S205R).
T2 construct: The N- and C- terminal residues of the mature enzymes are labelled 26; His6 with HRV3C cleavage site (pET-28a) (N, cleaved yes); made in house; host or cells: E. coli BL21(DE3)
The experiment is described as above. The experiment is classed as biochemical. Conditions: 50 mM HEPES pH 7.2, apparent for ampicillin and ceftazidime; for Km: read-out: Mean Km ± SD VIM-38. As for the experimental part: as §1

For experiment [2], the target named is T3, VIM-5 (Pseudomonas aeruginosa, UniProt A0A0F7KYQ8, A128K/E202A/H201L/K257T/S205R).
T3 construct: His6 with HRV3C cleavage site (pET-28a) (N, cleaved yes); made in house; host or cells: E. coli BL21(DE3)
The experiment is described as above. The following applies: for kcat VIM-5 / Km: 50 mM HEPES pH 7.2, apparent for ampicillin and ceftazidime; for Km: read-out: Mean Km ± SD VIM-5. Format: biochemical. As for the experimental part: as §1

The target in experiment [3] is T4, VIM-2 (Escherichia coli, UniProt Q5U7L7).
T4 construct: His6 (N, cleaved yes); made in house
Format: biochemical. As for the experimental part:
as §1

The target in experiment [4] is T1, VIM-1. Conditions: previous studies ref Franceschini et al. (4), cited from earlier work; for Km: read-out: Km VIM-1 (previous study).
Experiment [5] relates to VIM-5. Also noted: method as in Garcar et al. (6). Conditions: previous studies ref Garcar et al. (6), cited from earlier work; for Km: read-out: Km VIM-5 (previous study).
Experiment [6] deals with VIM-2. Also noted: method as in Poirel et al. (5). The following applies: previous studies ref Poirel et al. (5), cited from earlier work; for Km: read-out: Km VIM-2 (previous study).
The mark [7] stands for this setting: C-terminally His6-tagged VIM-1; 50 mM HEPES pH 7.2; apparent for ampicillin and ceftazidime.
Setting [8] is: 50 mM HEPES pH 7.2; apparent for ampicillin and ceftazidime.

The Km is the substrate concentration at which the rate is half of its maximum.

Regarding `CC1(C)S[C@@H]2[C@H](NC(=O)[C@H](N)c3ccccc3)C(=O)N2[C@H]1C(=O)O` [Ampicillin], the “kcat VIM-1” value at VIM-1 [1] (setting [7]) was 122 s⁻¹ and 120 s⁻¹. For the same compound, the Km was greater than 1000 µM at VIM-1 [1] (C-terminally His6-tagged VIM-1; 50 mM HEPES pH 7.2; apparent for ampicillin and ceftazidime; read-out: Mean Km ± SD VIM-1); greater than 300 µM on VIM-1 [1] (read-out: Mean Km ± SD VIM-1; C-terminally His6-tagged VIM-1; 50 mM HEPES pH 7.2; apparent for ampicillin and ceftazidime); 380 ± 80 µM on VIM-38; greater than 300 µM on VIM-38 (listed as ampicillin); greater than 1000 µM on VIM-5 [2]; greater than 300 µM on VIM-5 [2] (listed as ampicillin). The Michaelis constant (Km) at VIM-2 [3] (50 mM HEPES pH 7.2; apparent for ampicillin and ceftazidime; read-out: Mean Km ± SD VIM-2) is greater than 500 µM; at VIM-2 [3] (read-out: Mean Km ± SD VIM-2; 50 mM HEPES pH 7.2; apparent for ampicillin and ceftazidime), greater than 300 µM; on VIM-1 [4] it was 917 µM. The “kcat VIM-38” value on VIM-38 was determined as 170 s⁻¹. Further, the “kcat VIM-5” value at VIM-5 [2] turned out to be 230 s⁻¹. Besides, the “kcat VIM-2” value on VIM-2 [3] (setting [8]) turned out to be 180 s⁻¹. For the same compound, the “kcat VIM-1 (previous study)” value at VIM-1 [4] was 37 s⁻¹. Moreover, in the experiment on VIM-5 [5], the “kcat VIM-5 (previous study)” value was 14 s⁻¹.

With `CC(C)(O/N=C(\C(=O)N[C@@H]1C(=O)N2C(C(=O)[O-])=C(C[n+]3ccccc3)CS[C@H]12)c1csc(N)n1)C(=O)O` [Ceftazidime], the “kcat VIM-1” value at VIM-1 [1] (setting [7]) turned out to be 3 s⁻¹. For the same compound, at VIM-38, the “kcat VIM-38” value was 4 s⁻¹ and the Michaelis constant (Km) amounted to 430 ± 140 µM. Moreover, at VIM-5 [2], the “kcat VIM-5” value turned out to be 4 s⁻¹ and the Km came to 340 ± 80 µM. In addition, the “fold-higher hydrolysis efficiency by VIM-5 than previously reported” value on VIM-5 [2] (this study versus previously reported ([26])) came to 10 fold. In addition, the “kcat VIM-2” value at VIM-2 [3] (setting [8]) was found to be 2 s⁻¹. On VIM-1 [4], the “kcat VIM-1 (previous study)” value is 60 s⁻¹ and the Km is 794 µM. In addition, in the experiment with VIM-2 [6], the “kcat VIM-2 (previous study)” value is 89 s⁻¹ and the Km is 98 µM. In the experiment with VIM-5 [5], the “kcat VIM-5 (previous study)” value is 0.2 s⁻¹ and the Michaelis-Menten constant (Km) is 149 µM.

Turning to `CC(=O)OCC1=C(C(=O)O)N2C(=O)[C@@H](NC(=O)Cc3cccs3)[C@H]2SC1` [Cephalothin], at VIM-38, the “kcat VIM-38” value stood at 120 s⁻¹ and the Km was determined as 60 ± 8 µM. In addition, on VIM-5 [2], the “kcat VIM-5” value is 200 s⁻¹ and the Km was 100 ± 8 µM.

With `C[C@@H](O)[C@H]1C(=O)N2C(C(=O)O)=C(S[C@@H]3CN[C@H](C(=O)N(C)C)C3)[C@H](C)[C@H]12` [Meropenem], the “kcat VIM-1” value on VIM-1 [1] (setting [7]) was 50 s⁻¹. Moreover, at VIM-1 [1] (VIM-1 versus VIM-2), the “Km for VIM-1 fold higher than that for VIM-2” value is on record as greater than 6 fold and the “kcat for VIM-1 fold higher than those for VIM-2” value was greater than 7 fold. Besides, at VIM-38, the “kcat VIM-38” value turned out to be 10 s⁻¹ and the Michaelis-Menten constant (Km) was found to be 30 ± 4 µM. Further, on VIM-5 [2], the “kcat VIM-5” value was 16 s⁻¹ and 20 s⁻¹; the Km is 70 ± 10 µM. Further, the “kcat VIM-2” value on VIM-2 [3] (setting [8]) was 7 s⁻¹. Further, on VIM-1 [4], the “kcat VIM-1 (previous study)” value was 13 s⁻¹ and the Michaelis constant (Km) is 48 µM. Besides, in the experiment on VIM-2 [6], the “kcat VIM-2 (previous study)” value was 1.4 s⁻¹ and the Km is 5 µM. Further, in the experiment on VIM-5 [5], the “kcat VIM-5 (previous study)” value is 2.4 s⁻¹ and the Michaelis constant (Km) was 49 µM.
